Laboratory results as given in patent US4558142A, “7-Fluoro-prostacyclin analogs” (Hoffmann-La Roche Inc., priority 1982, dated 1985).

Tested on: platelet aggregation
Assay: inhibition of arachidonic acid-induced platelet aggregation in beagle platelet rich plasma (PRP), light transmission
Format: cell-based
Settings: Canis lupus familiaris, arachidonic acid inducer, 37°
Description: That the prostacyclins of formulas I-A and I-B of this invention are active as anti-blood platelet aggregating agents can be seen from the administration of (5Z,7β,9α,11α,13E,15R)-7-fluoro-6,9-epoxy-11,15-dihydroxy-16,16-dimethyl-prosta-5,13-dien-1-oic acid methyl ester by the following test.
30 Ml. of blood was drawn from the jugular vein of a conscious beagle using two 15 ml. Vacutainer tubes, with no additive, connected to a 20 g. 1 inch multiple sample needle. The blood was immediately transferred to a 50 ml. conical plastic centrifuge tube containing 3 ml. of 3.8% sodium citrate (3.8 grams of sodium citrate crystal, Na3 C6 H5 O7.2H2 O, in 100 ml. of distilled water), capped and gently mixed. The citrated blood was centrifuged at 160 g. for 15 minutes at 20° C. The platelet rich plasma (PRP) was carefully withdrawn with a pipette, without disturbing the buffy coat and erythrocyte layers. The PRP was placed in 16×125 mm plastic tubes, capped and stored at room temperature 19°-21° C. PRP preparations showing a tinge of redness, indicative of hemolysis, were discarded. The remaining blood, after the removal of PRP, was recentrifuged at higher speed, 900 g. for 10 minutes, to yield platelet poor plasma (PPP). The PRP was used immediately and the aggregation study completed within three hours after preparation.
Platelet aggregation was measured with a Payton duel channel aggregation module connected to a duel pen recorder for the continuous recording of the increase in light transmission due to clumping of platelets. The 0-100% transmission scale was set with PRP (0%) and PPP (100%). The temperature was set at 37° and the stirring speed at 900 rpm. 0.45 Ml. of PRP was added to a cuvette containing a teflon coating stirring bar and prewarmed at 37° in a water bath. 5 μl of various concentrations of (5Z,7β,9α,11α,13E,15R)-7-fluoro-6,9-epoxy-11,15-dihydroxy-16,16-dimethyl-prosta-5,13-dien-1-oic acid methyl ester, diluted from a stock solution of 5×10^-4 M in DMSO (dimethylsulfoxide) with phosphate buffered saline containing 1 mg/ml. of bovine serum albumin, fraction V, was added and stirred for 1 minute. The inducer of aggregation, arachidonic acid, at a concentration which will cause 50-70% aggregation after 5 minutes, was then added in 50 μl of solution. The % inhibition, set forth in the following Table, was calculated from the ratio of the % aggregation with (5Z,7β,9α,11α,13E,15R)-7-fluoro-6,9-epoxy-11,15-dihydroxy-16,16-dimethyl-prosta-5,13-dien-1-oic acid methyl ester over that with the vehicle×100.
The preparation of phosphate buffered saline and arachidonic acid solution used above is as follows: Phosphate buffered saline (PBS) was prepared by adding 1 mM solution of sodium phosphate aqueous buffer, pH 7.4 to 0.85% by weight/volume of an aqueous sodium chloride solution. Arachidonic acid solution was prepared as follows: A stock solution of 10 mg. per ml. in absolute ETOH was prepared and stored in freezer. To make a 10 mM solution, 0.3 ml. of the stock solution was evaporated to near dryness under nitrogen and redissolved in 0.75 ml. of 0.02NH4 OH (freshly prepared) and 0.2 ml. of PBS. Further dilutions of arachidonic acid were made with NH4 OH and PBS mixture.

CCCCC(C)(C)[C@H](O)/C=C/[C@@H]1[C@@H]2[C@H](C[C@H]1O)O/C(=C\CCCC(=O)OC)[C@H]2F [(5Z,7β,9α,11α,13E,15R)-7-fluoro-6,9-epoxy-11,15-dihydroxy-16,16-dimethyl-prosta-5,13-dien-1-oic acid methyl ester]
inhibition at 0.0001 µM (concentration 1 × 10^-10 M): 20.8% | inhibition at 10 pM (concentration 1 × 10^-11 M): 57.8% | inhibition at 1 pM (concentration 1 × 10^-12 M): 71.4% | inhibition at 100 fM (concentration 1 × 10^-13 M): 14.2% | inhibition at 300 fM (concentration 3 × 10^-13 M): 20.8%
